Data reported in US8623859B2, “Bradykinin B1 antagonists” (Evotec AG, priority 2008, dated 2014).
Structures can show the parent of a compound that is named as a salt.

Biological target: T1, human B1 (Homo sapiens, UniProt P46663)
T1 construct: host or cells: CHO-K1
T1 sequence (P46663 1-353): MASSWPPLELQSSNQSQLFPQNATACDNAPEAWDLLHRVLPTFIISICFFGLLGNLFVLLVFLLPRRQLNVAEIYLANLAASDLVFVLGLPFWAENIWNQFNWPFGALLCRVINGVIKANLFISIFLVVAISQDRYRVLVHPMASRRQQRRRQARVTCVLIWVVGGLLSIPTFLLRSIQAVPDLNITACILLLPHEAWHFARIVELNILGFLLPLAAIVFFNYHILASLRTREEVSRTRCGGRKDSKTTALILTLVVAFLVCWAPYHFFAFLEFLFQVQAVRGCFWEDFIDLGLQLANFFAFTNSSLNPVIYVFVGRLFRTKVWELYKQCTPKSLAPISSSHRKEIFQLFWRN
Experiment: Calcium flux assay for Bradykinin B1 antagonist, CHO-K1 cell line expressing human B1
Assay type: cell-based
Conditions: CHO-K1 cells expressing human B1, agonist Lys-(Des-Arg)-Bradykinin, read-out: Potency (IC50 value against human B1)
How it was run: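 CHO-K1 cells expressing human B1, loaded with 5 μM Fluo-4AM (2 h, 37° C) in HEPES buffer pH 7.4 with probenecid and 0.1% BSA, were preincubated 30 min at 25° C with compound (8 concentrations, triplicate, 1% DMSO) before B1 agonist addition. Ca2+ fluorescence monitored at 538 nm; background-normalized integrated values plotted against log antagonist concentration.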

## Cc1cc(S(=O)(=O)N(Cc2nc(C(=O)N(C)CCc3ccc(C4=NCCN4)cc3)co2)C2CC2)c(C)cc1Cl [Ex 217, 2-({[(4-Chloro-2,5-dimethylphenyl)sulfonyl](cyclopropyl)amino}methyl)-N-{2-[4-(4,5-dihydro-1H-imidazol-2-yl)phenyl]ethyl}-N-methyl-1,3-oxazole-4-carboxamide trifluoroacetate]
  IC50: 100 to 1000 nM

## COc1cc(C)c(S(=O)(=O)N(C)Cc2nc(C(=O)N(C)Cc3ccc(CN4CC(O)C4)cc3)co2)c(C)c1 [Ex 172, N-{4-[(3-Hydroxyazetidin-1-yl)methyl]benzyl}-2-({[(4-methoxy-2,6-dimethylphenyl)sulfonyl](methyl)amino}methyl)-N-methyl-1,3-oxazole-4-carboxamide]
  IC50: 10 to 100 nM

## COc1cc(C)c(S(=O)(=O)N(Cc2nc(C(=O)N(C)Cc3ccc(CN4CCC(OC)C4)cc3)co2)C2CC2)c(C)c1 (centres unmarked) [Ex 182, 2-({Cyclopropyl[(4-methoxy-2,6-dimethylphenyl)sulfonyl]amino}methyl)-N-{4-[(3-methoxypyrrolidin-1-yl)methyl]benzyl}-N-methyl-1,3-oxazole-4-carboxamide]
  IC50: < 10 nM

## COc1cc(C)c(S(=O)(=O)N(C)Cc2nc(C(=O)NCc3ccc(CN4CCCC4)cc3)co2)c(C)c1 [Ex 72, 2-({[(4-Methoxy-2,6dimethylphenyl)sulfonyl](methyl)amino}methyl)-N-[4-(pyrrolidin-1-ylmethyl)benzyl]-1,3-oxazole-4-carboxamide]
  IC50: 10 to 100 nM

## COc1cc(C)c(S(=O)(=O)N(C)Cc2cc(C(=O)NCCc3ccc(C4=NC(C)CN4)cc3)co2)c(C)c1 (centres unmarked) [Ex 7, 5-({[(4-methoxy-2,6-dimethylphenyl)sulfonyl](methyl)amino}methyl)-N-{2-[4-(4-methyl-4,5-dihydro-1H-imidazol-2-yl)phenyl]ethyl}furan-3-carboxamide]
  IC50: < 10 nM

## COc1cc(C)c(S(=O)(=O)N(Cc2cc(C(=O)N(C)Cc3ccc(CN4CCCC(OC)C4)cc3)co2)C2CC2)c(C)c1 (centres unmarked) [Ex 144, 5-({Cyclopropyl[(4-methoxy-2,6-dimethylphenyl)sulfonyl]amino}methyl)-N-{4-[(3-methoxypiperidin-1-yl)methyl]benzyl}-N-methylfuran-3-carboxamide]
  IC50: 100 to 1000 nM

## COc1cc(C)c(S(=O)(=O)N(C)Cc2nc(C(=O)N3CCN(CC4CCN(C)CC4)CC3)co2)c(C)c1 [Ex 175, 4-Methoxy-N,2,6-trimethyl-N-{[4-({4-[(1-methylpiperidin-4-yl)methyl]piperazin-1-yl}carbonyl)-1,3-oxazol-2-yl]methyl}benzenesulfonamide]
  IC50: < 10 nM

## COc1cc(C)c(S(=O)(=O)N(C)Cc2nnc(C(=O)N3CCN(CCCN(C)C)CC3)o2)c(C)c1 [Ex 279, N-{[5-({4-[3-(Dimethylamino)propyl]piperazin-1-yl}carbonyl)-1,3,4-oxadiazol-2-yl]methyl}-4-methoxy-N,2,6-trimethylbenzenesulfonamide]
  IC50: 10 to 100 nM

## COc1cc(C)c(S(=O)(=O)N(Cc2nnc(C(=O)N(C)Cc3ccc(CN4CCCC4)cc3)o2)C2CC2)c(C)c1 [Ex 281, 5-({Cyclopropyl[(4-methoxy-2,6-dimethylphenyl)sulfonyl]amino}methyl)-N-methyl-N-[4-(pyrrolidin-1-ylmethyl)benzyl]-1,3,4-oxadiazole-2-carboxamide]
  IC50: < 10 nM

## CN(Cc1ccc(C2=NCCN2)cc1)C(=O)c1coc(CN(C)S(=O)(=O)c2ccc(Cl)cc2Cl)c1 [Ex 21, 5-({[(2,4-dichlorophenyl)sulfonyl](methyl)amino}methyl)-N-[4-(4,5-dihydro-1H-imidazol-2-yl)benzyl]-N-methylfuran-3-carboxamide]
  IC50: < 10 nM

## COc1cc(C)c(S(=O)(=O)N(Cc2nc(C(=O)N3CCN(Cc4ccccn4)CC3)co2)C2CC2)c(C)c1 [Ex 227, N-Cyclopropyl-4-methoxy-2,6-dimethyl-N-[(4-{[4-(pyridin-2-ylmethyl)piperazin-1-yl]carbonyl}-1,3-oxazol-2-yl)methyl]benzenesulfonamide trifluoroacetate]
  IC50: 100 to 1000 nM

## COc1cc(C)c(S(=O)(=O)N(C)Cc2nc(C(=O)N3CCN(CC4CCN(C)CC4)CC3)no2)c(C)c1 [Ex 321, 4-Methoxy-N,2,6-trimethyl-N-{[3-({4-[(1-methylpiperidin-4-yl)methyl]piperazin-1-yl}carbonyl)-1,2,4-oxadiazol-5-yl]methyl}benzenesulfonamide]
  IC50: 100 to 1000 nM

## COc1cc(C)c(S(=O)(=O)N(Cc2nc(C(=O)N(C)Cc3ccc(CN4CC(O)C4)cc3)co2)C2CC2)c(C)c1 [Ex 188, 2-({Cyclopropyl[(4-methoxy-2,6-dimethylphenyl)sulfonyl]amino}methyl)-N-{4-[(3-hydroxyazetidin-1-yl)methyl]benzyl}-N-methyl-1,3-oxazole-4-carboxamide]
  IC50: 10 to 100 nM

## COc1cc(C)c(S(=O)(=O)N(C)Cc2cc(C(=O)N3CCC(CN4CCCC4)CC3)co2)c(C)c1 [Ex 41, 4-methoxy-N,2,6-trimethyl-N-[(4-{[4-(pyrrolidin-1-ylmethyl)piperidin-1-yl]carbonyl}furan-2-yl)methyl]benzenesulfonamide]
  IC50: 100 to 1000 nM

## COc1cc(C)c(S(=O)(=O)N(Cc2cc(C(=O)N(C)CCc3ccc(C4=NCCN4)cc3)co2)C2CCC2)c(C)c1 [Ex 51, 5-({Cyclobutyl[(4-methoxy-2,6-dimethylphenyl)sulfonyl]amino}methyl)-N-{2-[4-(4,5-dihydro-1H-imidazol-2-yl)phenyl]ethyl}-N-methylfuran-3-carboxamide]
  IC50: < 10 nM

## COc1cc(C)c(S(=O)(=O)N(C)Cc2cc(C(=O)N(C)Cc3ccc(C4=NCCCN4)cc3)co2)c(C)c1 [Ex 10, 5-({[(4-methoxy-2,6-dimethylphenyl)sulfonyl](methyl)amino}methyl)-N-methyl-N-[4-(1,4,5,6-tetrahydropyrimidin-2-yl)benzyl]furan-3-carboxamide]
  IC50: 10 to 100 nM

## COc1cc(C)c(S(=O)(=O)N(Cc2nc(C(=O)N3CCN(Cc4ccncc4)CC3)co2)C2CC2)c(C)c1 [Ex 162, N-Cyclopropyl-4-methoxy-2,6-dimethyl-N-[(4-{[4-(pyridin-4-ylmethyl)piperazin-1-yl]carbonyl}-1,3-oxazol-2-yl)methyl]benzenesulfonamide trifluoroacetate]
  IC50: < 10 nM

## COc1cc(C)c(S(=O)(=O)N(C)C(C)c2cc(C(=O)NCCc3ccc(C4=NCCN4)cc3)co2)c(C)c1 (centres unmarked) [Ex 85, N-{2-[4-(4,5-dihydro-1H-imidazol-2-yl)phenyl]ethyl}-5-(1-{[(4-methoxy-2,6-dimethylphenyl)sulfonyl](methyl)amino}ethyl)furan-3-carboxamide trifluoroacetamide]
  IC50: 100 to 1000 nM

## COc1cc(C)c(S(=O)(=O)N(Cc2nc(C(=O)N(C)CCOc3ccncc3)co2)C2CC2)c(C)c1 [Ex 257, 2-({Cyclopropyl[(4-methoxy-2,6-dimethylphenyl)sulfonyl]amino}methyl)-N-methyl-N-[2-(pyridin-4-yloxy)ethyl]-1,3-oxazole-4-carboxamide]
  IC50: 100 to 1000 nM

## COc1cc(C)c(S(=O)(=O)N(C)Cc2nc(C(=O)N3CCN(CCCN4CCCC4)CC3)co2)c(C)c1 [Ex 174, 4-Methoxy-N,2,6-trimethyl-N-[(4-{[4-(3-pyrrolidin-1-ylpropyl)piperazin-1-yl]carbonyl}-1,3-oxazol-2-yl)methyl]benzenesulfonamide]
  IC50: < 10 nM

## COc1cc(C)c(S(=O)(=O)N(Cc2noc(C(=O)N(C)Cc3nnc(CN4CCCC4)s3)n2)C2CC2)c(C)c1 [Ex 313, 3-({Cyclopropyl[(4-methoxy-2,6-dimethylphenyl)sulfonyl]amino}methyl)-N-methyl-N-{[5-(pyrrolidin-1-ylmethyl)-1,3,4-thiadiazol-2-yl]methyl}-1,2,4-oxadiazole-5-carboxamide]
  IC50: < 10 nM

## COc1cc(C)c(S(=O)(=O)N(Cc2nc(C(=O)NCCC3CCCNC3)co2)C2CC2)c(C)c1 (centres unmarked) [Ex 159a, 2-({Cyclopropyl[(4-methoxy-2,6-dimethylphenyl)sulfonyl]amino}methyl)-N-(2-piperidin-3-ylethyl)-1,3-oxazole-4-carboxamide]
  IC50: 100 to 1000 nM

## COc1cc(C)c(S(=O)(=O)N(Cc2nnc(C(=O)N3CCN(C4CCN(C)CC4)CC3)o2)C2CC2)c(C)c1 [Ex 271, N-Cyclopropyl-4-methoxy-2,6-dimethyl-N-[(5-{[4-(1-methylpiperidin-4-yl)piperazin-1-yl]carbonyl}-1,3,4-oxadiazol-2-yl)methyl]benzenesulfonamide]
  IC50: 10 to 100 nM

## COc1cc(C)c(S(=O)(=O)N(C)Cc2nnc(C(=O)N3CCN(Cc4ccc(Cl)nc4)CC3)o2)c(C)c1 [Ex 297, N-{[5-({4-[(6-Chloropyridin-3-yl)methyl]piperazin-1-yl}carbonyl)-1,3,4-oxadiazol-2-yl]methyl}-4-methoxy-N,2,6-trimethylbenzenesulfonamide]
  IC50: < 10 nM

## COc1cc(C)c(S(=O)(=O)N(Cc2nnc(C(=O)N3CCC(CCN4CCCC4)CC3)o2)C2CC2)c(C)c1 [Ex 274, N-Cyclopropyl-4-methoxy-2,6-dimethyl-N-[(5-{[4-(2-pyrrolidin-1-ylethyl)piperidin-1-yl]carbonyl}-1,3,4-oxadiazol-2-yl)methyl]benzenesulfonamide]
  IC50: < 10 nM

## COc1cc(C)c(S(=O)(=O)N(C)Cc2nc(C(=O)N(C)Cc3ccc(CN4CCC(O)C4)cc3)co2)c(C)c1 (centres unmarked) [Ex 178, N-{4-[(3-Hydroxypyrrolidin-1-yl)methyl]benzyl}-2-({[(4-methoxy-2,6-dimethylphenyl)sulfonyl](methyl)amino}methyl)-N-methyl-1,3-oxazole-4-carboxamide]
  IC50: < 10 nM
